The text below walks through data of patent publication US20250236589A1, “THERAPEUTIC PHENETHYLAMINE COMPOSITIONS AND METHODS OF USE” (Cybin IRL Limited, priority 2022, published 2025).

The test system of data set [1] is Calcium Channel L-Type, Phenylalkylamine, verapamil site (rat cortex). Description: Off-target screen, radioligand displacement at 10 μM. The format is binding. To be noted: antagonist radioligand.
In the next data set the target is human alpha2B receptor (Homo sapiens (Human), UniProt P18089). Put plainly: alpha2B receptor binding ([3H]rauwolscine). On the procedure:
At 10 μM, I-1 inhibited 97% of radioligand bound to rat alpha2 receptors.

Data set [2] in a line: Plasma and brain concentrations after dosing in mice (screening). It counts as in vivo, mouse. The settings on record: for concentration at 160 min: sc, mice, 3 mg/kg s.c.
Data set [3] relates to Adrenergic α2 (subtype not identified) (rat cortex). Put plainly: Off-target screen, radioligand displacement at 10 μM. To be noted: antagonist radioligand. It counts as binding. A general note: Displacement assays read how much labelled ligand stays bound in the presence of the test substance.
Another data set has as its system mice. Description: Head-twitch response (HTR) screening in mice. The format is in vivo, mouse.
A short description of data set [4]: PK in Sprague-Dawley rats (plasma, brain, CSF). The format is in vivo, rat. As for the experimental part: In another rat PK study, plasma, brain, and cerebrospinal fluid (CSF) distribution of I-1 was evaluated in Sprague-Dawley male rats after intravenous (IV) administration at 1 mg/kg. Plasma, brain, and CSF samples were collected at specified time points up to 8 hr postdose after single dose administration of I-1. Blood samples were collected via cardiac puncture and the animals were euthanized via CO2 inhalation after blood samples were collected. The CSF samples were collected via cisterna magna puncture with the brain tissue extracted after decapitation (N=4 animals per time point). The concentrations of compound I-1 in plasma, with K2EDTA as the anticoagulant, brain tissue, and CSF were determined by LC-MS/MS (LLOQ, 0.3 ng/mL). PK parameters for plasma, CSF, and brain tissue were calculated as described above.

A short description of a further data set: Brain protein binding. The format is in vitro ADME. The settings on record: dilute brain homogenate. From the text: The CSF concentrations were only 20% of that found in plasma. Concomitantly CSF concentrations were 1.6% of brain concentrations. The CSF/brain ratio corroborates brain protein binding experiments in which the free fraction of compound I-1 in dilute brain homogenate was 1.4%.

In a further data set the target is MAO-A (Homo sapiens (Human), UniProt P21397). Put plainly: Recombinant human MAO-A activity (stability). It counts as in vitro ADME. The settings on record: hrMAO 0.02 mg/mL, read-out: MAO-A, t1/2.
Data set [5] is described as follows: In vitro liver microsome stability (MsLM). The format is in vitro ADME. To be noted: mouse, mouse liver microsomes, 0.5 mg/mL microsomes, NADPH, read-out: MsLM, t1/2. On the procedure:
In vitro stability was determined in Human (HLM), Rat (RLM), Mouse (MsLM), and dog (DLM) Liver Microsomes. All liver microsomes were purchased from a commercial supplier (e.g. XenoTech). The reaction mixture, minus NADPH, was prepared as described below. The test compound was added into the reaction mixture at a final concentration of 1 μM or co-dosed with their deuterated analog(s) at 1 μM each. The control compound, testosterone, was run simultaneously with the test compound in a separate reaction. The reaction mixture (without cofactor) was equilibrated in a shaking water bath at 37° C. for 5 minutes. The reaction was initiated by the addition of the cofactor, and the mixture was incubated in a shaking water bath at 37° C. Aliquots (150 μL) were withdrawn at 0, 5, 10, 20, 30, 60, and 120 minutes. Test compound and testosterone samples were immediately combined with 150 μL of ice-cold acetonitrile (ACN) containing 0.1% formic acid and internal standard to terminate the reaction. The samples were then mixed and centrifuged to precipitate proteins. All samples were assayed by LC-MS/MS using electrospray ionization. […] Half-lives were calculated using GraphPad software, fitting to a single-phase exponential decay equation.

[6] abbreviates: male, Sprague-Dawley, rat, CSF, IV 1 mg/kg.
Where [7] appears, read: male, Sprague-Dawley, rat, brain, IV 1 mg/kg.
The mark [8] stands for this setting: male, Sprague-Dawley, rat, plasma, IV 1 mg/kg.

The structures appear in SMILES notation. Read-outs that look alike come from different tables or passages of the source. Marks after values point to notes of the source that are not given here.

Chain of human alpha2B receptor (P18089 whole entry): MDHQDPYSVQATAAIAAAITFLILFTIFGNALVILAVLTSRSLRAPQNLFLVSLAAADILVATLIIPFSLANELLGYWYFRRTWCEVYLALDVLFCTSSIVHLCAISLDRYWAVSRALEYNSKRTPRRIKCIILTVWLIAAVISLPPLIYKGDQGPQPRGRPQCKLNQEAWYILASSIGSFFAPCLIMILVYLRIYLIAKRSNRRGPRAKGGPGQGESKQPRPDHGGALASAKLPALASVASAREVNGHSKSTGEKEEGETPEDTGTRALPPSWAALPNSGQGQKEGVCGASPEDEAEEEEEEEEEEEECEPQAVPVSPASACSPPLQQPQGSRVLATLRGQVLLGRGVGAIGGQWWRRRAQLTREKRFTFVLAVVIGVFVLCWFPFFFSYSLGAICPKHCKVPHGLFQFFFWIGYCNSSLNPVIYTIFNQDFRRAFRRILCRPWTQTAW
Chain of MAO-A (P21397 whole entry, looked up): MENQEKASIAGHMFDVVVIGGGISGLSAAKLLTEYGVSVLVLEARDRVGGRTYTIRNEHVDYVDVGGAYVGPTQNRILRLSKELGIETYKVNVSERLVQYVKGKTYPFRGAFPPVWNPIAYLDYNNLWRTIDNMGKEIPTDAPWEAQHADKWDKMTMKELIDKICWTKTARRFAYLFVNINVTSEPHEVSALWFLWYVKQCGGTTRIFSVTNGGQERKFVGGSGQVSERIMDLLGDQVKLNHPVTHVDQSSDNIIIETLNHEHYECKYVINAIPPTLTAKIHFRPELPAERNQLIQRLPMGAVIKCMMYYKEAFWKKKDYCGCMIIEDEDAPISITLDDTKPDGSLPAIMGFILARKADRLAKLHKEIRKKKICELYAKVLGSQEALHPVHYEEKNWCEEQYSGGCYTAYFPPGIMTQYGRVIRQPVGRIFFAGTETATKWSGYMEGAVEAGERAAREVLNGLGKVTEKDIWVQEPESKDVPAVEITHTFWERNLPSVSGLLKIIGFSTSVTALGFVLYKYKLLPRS

As for `COc1cc(CC(C)N)c(OC)cc1I` (racemic) [DOI, (±)-2,5-dimethoxy-4-iodoamphetamine, reference compound], the “inhibition at 10 µM” value in data set [1] was found to be 55.5% inhibition at 10 μM.
With `COc1cc(SC(F)(F)F)c(OC)cc1CCN` [Compound I-1, 2-(2,5-dimethoxy-4-((trifluoromethyl)thio)phenyl)ethan-1-amine], at human alpha2B receptor, the Ki (commonly the equilibrium dissociation constant of an inhibitor or competing ligand from its target) was 1.02 µM. For the same compound, in data set [2] (160 min after 3 mg/kg), the “brain/plasma ratio, 160 min” value amounted to 32.4. The concentration at 160 min in [2] (mouse, brain, read-out: Brain, 160 min) was determined as 9.6 µM. In addition, the Kp at 160 min in data set [2] (mouse, brain/plasma, subcutaneous, 3 mg/kg, 160 min after 3 mg/kg, read-out: brain/plasma ratio, 160 min) lay in the range of 24 to 32. Further, the concentration at 160 min in data set [2] (mouse, plasma, read-out: Plasma, 160 min) worked out at 0.3 µM. In addition, in [3], the “inhibition at 10 µM” value is listed as 97.3%. Further, in the data set with mice (calculated using 0-5 min), the “HTR 15-25 min” value is 27.4 #. Besides, in the data set on mice (calculated using 3 min time bin), the “HTR 160-170 min” value is recorded as 30.4 ###. For the same compound, the Tlast in [4] (CSF, IV 1 mg/kg) was 6 h. Moreover, the “CSF concentrations as share of brain concentrations” value in [4] (IV 1 mg/kg) is reported as 1.6%. In addition, the Tlast in data set [4] (brain, IV 1 mg/kg) was determined as 8 h. The “total systemic clearance relative to total hepatic blood flow” value in [4] (hepatic blood flow 3.31 L/hr/kg) is “approximately 1.4 fold”. Besides, the Kp in data set [4] (male, Sprague-Dawley, rat, CSF/plasma, IV 1 mg/kg, read-out: CSF concentrations as share of plasma) amounted to 0.2. In addition, in data set [4] (setting [6]), the AUC(0-inf) – broadly, the area under the concentration-time curve extrapolated to infinity – came out at 51.4 ng·h/mL; the AUC(0-t) (as a rule, the area under the concentration-time curve up to a stated or last time point) worked out at 49.9 ng·h/mL; the Cmax (in general, the peak of the concentration-time curve) was found to be 48.7 ng/mL; the MRT inf (in general, a mean duration of stay, worked out from the concentration-time curve) came out at 1.51 h. In data set [4] (setting [6]), the Tmax – broadly, the time from dosing to the highest level – was 0.083 h and the half-life was 1.26 h. In [4] (setting [7]), this compound showed an AUC(0-inf) of 3280 ng·h/mL, an AUC(0-t) of 3220 ng·h/mL, a Cmax of 1490 ng/mL and an MRT inf of 1.98 h. Moreover, in data set [4] (setting [7]), the Tmax came to 0.25 h and the half-life is 1.34 h. In [4] (setting [8]), the AUC(0-inf) stood at 210 ng·h/mL, the AUC(0-t) came out at 207 ng·h/mL, the C0 worked out at 330 ng/mL and the Cmax turned out to be 250 ng/mL. Besides, in data set [4] (setting [8]), the MRT inf came out at 1.19 h; the Tmax stood at 0.083 h; the clearance (commonly a measure of how efficiently the substance is removed, as volume per time) was 79.5 mL/min/kg; the half-life is 1.53 h. Besides, the Vd in [4] (male, Sprague-Dawley, rat, plasma, IV 1 mg/kg, read-out: Vss) was determined as 5.67 L/kg. Moreover, the Tlast in [4] (plasma, IV 1 mg/kg) is 8 h. For the same compound, the “volume of distribution relative to total body water” value in [4] (total body water 0.7 L/kg) is recorded as “approximately 8.1 fold”. Moreover, the unbound share (fraction unbound) – broadly, free concentration divided by total concentration – in “Brain protein binding” came to 0.014. On MAO-A, the half-life at 1 μM was above 2 h. Also, in data set [5], the half-life at 1 μM is above 2 h.
